Our source for the Ki values is US8658642B2 (Axikin Pharmaceuticals, Inc., priority 2009, dated 2014).

The target of this assay is T1, CCR3 (Homo sapiens, UniProt P51677).
T1 sequence (P51677 1-355): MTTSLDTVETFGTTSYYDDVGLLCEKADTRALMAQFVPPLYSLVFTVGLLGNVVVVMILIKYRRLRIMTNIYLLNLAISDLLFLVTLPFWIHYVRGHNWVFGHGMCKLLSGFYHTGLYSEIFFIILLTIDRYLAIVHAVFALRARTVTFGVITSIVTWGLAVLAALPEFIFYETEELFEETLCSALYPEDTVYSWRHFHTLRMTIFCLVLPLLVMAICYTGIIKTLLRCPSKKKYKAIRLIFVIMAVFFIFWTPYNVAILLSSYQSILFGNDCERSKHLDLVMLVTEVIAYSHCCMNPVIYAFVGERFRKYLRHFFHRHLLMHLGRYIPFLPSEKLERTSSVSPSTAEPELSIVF
Briefly: CCR3 receptor binding assay ([125I]-labeled human eotaxin/CCL11 displacement on cells). Conditions: 0.1 nM [125I]-labeled human eotaxin/CCL11, 2×10^5 cells/well, 60 min at room temperature. As to the method: CCR3 Receptor Binding Assay
Cells were washed once with PBS and resuspended in a binding buffer (25 mM HEPES pH 7.6, 5 mM MgCl2, 1 mM CaCl2, 0.5% BSA, 0.1% NaN3). […] of cell suspension (2×10^5 cells/well) and 0.1 nM [^125I]-labeled human eotaxin/CCL11 (2000 Ci/mmol specific activity) were mixed in a 96-well U-bottom polypropylene plate, and incubated for 60 min at room temperature for the binding reaction. The cell suspension was then transferred to a filtration plate (#MAFB, Millipore), and washed 3 times with the binding buffer containing 0.5 M NaCl, scintillant added, and the radioactivity was counted on a TopCount (Packard). For the determination of non-specific binding, the cell suspension and [^125I]-labeled human eotaxin/CCL11 were incubated in the presence of 500 nM of unlabeled human eotaxin/CCL11. See, lino et al., “Molecular cloning and functional characterization of cynomolgus monkey (Macaca fascicularis) CC chemokine receptor, CCR3,” Cytokine 2002, 19, 276-286.
In the case of `Cc1cc(C)cc(Oc2ccc(C#N)cc2S(=O)(=O)N2CCN(S(=O)(=O)CC34CCC(CC3=O)C4(C)C)CC2)c1` (centres unmarked) [Compound 51], the Ki (commonly a measure of affinity in units of concentration, obtained from inhibition or displacement) is more than 5 µM.

`Cc1cc(C)cc(Oc2ccc(C#N)cc2S(=O)(=O)N2CCN(S(C)(=O)=O)CC2)c1` [Compound 52, 4-(3,5-Dimethylphenoxy)-3-(4-(methylsulfonyl)piperazin-1-ylsulfonyl)benzonitrile] had an inhibition constant Ki of more than 5 µM. As to `Cc1ccc(S(=O)(=O)N2CCN(S(=O)(=O)c3cc(C#N)ccc3Oc3cc(C)cc(C)c3)CC2)cc1` [Compound 53, 4-(3,5-Dimethylphenoxy)-3-(4-tosylpiperazin-1-ylsulfonyl)benzonitrile], the inhibition constant Ki is more than 5 µM.

Take `Cc1cc(C)cc(Oc2ccc(C#N)cc2S(=O)(=O)N2CCN(C(=O)c3ccc(C(F)(F)F)cc3)CC2)c1` [Compound 54, 4-(3,5-Dimethylphenoxy)-3-(4-(4-(trifluoromethyl)benzoyl)piperazin-1-ylsulfonyl)benzonitrile]: the inhibition constant (Ki) was more than 5 µM. With `Cc1cc(C)cc(Oc2ccc(C#N)cc2S(=O)(=O)N2CCN(C(=O)c3ccccc3)CC2)c1` [Compound 55, 3-(4-Benzoylpiperazin-1-ylsulfonyl)-4-(3,5-dimethylphenoxy)benzonitrile] the figure was more than 5 µM. The value for `Cc1cc(C)cc(Oc2ccc(C#N)cc2S(=O)(=O)N2CCN(S(=O)(=O)CC(C)C)CC2)c1` [Compound 56, 4-(3,5-Dimethylphenoxy)-3-(4-(isobutylsulfonyl)piperazin-1-ylsulfonyl)benzonitrile] was more than 5 µM; that for `CCC(=O)N1CCN(S(=O)(=O)c2cc(C#N)ccc2Oc2cc(C)cc(C)c2)CC1` [Compound 57, 4-(3,5-dimethylphenoxy)-3-(4-propionylpiperazin-1-ylsulfonyl)benzonitrile] was 0.5 to 5 µM. For `Cc1cc(C)cc(Oc2ccc(C#N)cc2S(=O)(=O)N2CCN(C(=O)NC(C)C)CC2)c1` [Compound 58, 4-(5-cyano-2-(3,5-dimethylphenoxy)phenylsulfonyl)-N-isopropylpiperazine-1-carboxamide], the Ki lay within 0.05 to 0.5 µM. Molecule `CCC(C)(C)C(=O)N1CCN(S(=O)(=O)c2cc(C#N)ccc2Oc2cc(C)cc(C)c2)CC1` [Compound 59, 3-(4-(2,2-Dimethylbutanoyl)piperazin-1-ylsulfonyl)-4-(3,5-dimethylphenoxy)benzonitrile] had an inhibition constant (Ki) of more than 5 µM.

`Cc1cc(C)cc(Oc2ccc(C#N)cc2S(=O)(=O)N2CCN(S(=O)(=O)c3ccc(C(F)(F)F)cc3)CC2)c1` [Compound 60, 4-(3,5-dimethylphenoxy)-3-(4-(4-(trifluoromethyl)phenylsulfonyl)piperazin-1-ylsulfonyl)benzonitrile]: the Ki is more than 5 µM. With `Cc1cc(C)cc(Oc2ccc(C#N)cc2S(=O)(=O)N2CCN(C(=O)Nc3cccc(F)c3)CC2)c1` [Compound 61, 4-(5-Cyano-2-(3,5-dimethylphenoxy)phenylsulfonyl)-N-(3-fluorophenyl)piperazine-1-carboxamide] the figure was more than 5 µM. The value for `CCc1ccc(NC(=O)N2CCN(S(=O)(=O)c3cc(C#N)ccc3Oc3cc(C)cc(C)c3)CC2)cc1` [Compound 62, 4-(5-Cyano-2-(3,5-dimethylphenoxy)phenylsulfonyl)-N-(4-ethylphenyl)piperazine-1-carboxamide] was more than 5 µM; that for `Cc1cc(C)cc(Oc2ccc(C#N)cc2S(=O)(=O)N2CCN(C(=O)C(C)(C)C)CC2)c1` [Compound 63, 4-(3,5-Dimethylphenoxy)-3-(4-pivaloylpiperazin-1-ylsulfonyl)benzonitrile] was more than 5 µM; that for `Cc1cc(C)cc(Oc2ccc(C#N)cc2S(=O)(=O)N2CCN(C(=O)C3CCC3)CC2)c1` [Compound 64, 3-(4-(Cyclobutanecarbonyl)piperazin-1-ylsulfonyl)-4-(3,5-dmethylphenoxy)benzonitrile] was more than 5 µM. With `Cc1cc(C)cc(Oc2ccc(C#N)cc2S(=O)(=O)N2CCN(C(=O)C3CCCCC3)CC2)c1` [Compound 65, 3-(4-(Cyclohexanecarbonyl)piperazin-1-ylsulfonyl)-4-(3,5-dimethylphenoxy)benzonitrile] the figure was more than 5 µM; with `Cc1cc(C)cc(Oc2ccc(C#N)cc2S(=O)(=O)N2CCN(C(=O)CC(C)C)CC2)c1` [Compound 66, 4-(3,5-Dimethylphenoxy)-3-(4-(3-methylbutanoyl)piperazin-1-ylsulfonyl)benzonitrile], more than 5 µM. `Cc1cc(C)cc(Oc2ccc(C#N)cc2S(=O)(=O)N2CCN(C(=O)CC(C)(C)C)CC2)c1` [Compound 67, 3-(4-(3,3-Dimethylbutanoyl)piperazin-1-ylsulfonyl)-4-(3,5-dimethylphenoxy)benzonitrile] yielded an inhibition constant (Ki) of more than 5 µM.

As for `Cc1cc(C)cc(Oc2ccc(C#N)cc2S(=O)(=O)N2CCN(C(=O)C3CCCC3)CC2)c1` [Compound 68, 3-(4-(Cyclopentanecarbonyl)piperazin-1-ylsulfonyl)-4-(3,5-dimethylphenoxy)benzonitrile], the Ki is more than 5 µM. The value for `N#Cc1ccc(Oc2cc(Cl)cc(Cl)c2)c(S(=O)(=O)N2CCN(C(=O)c3ccc(C(F)(F)F)cc3)CC2)c1` [Compound 69, 4-(3,5-Dichlorophenoxy)-3-(4-(4-(trifluoromethyl)benzoyl)piperazin-1-ylsulfonyl)benzonitrile] was more than 5 µM; that for `N#Cc1ccc(Oc2cc(Cl)cc(Cl)c2)c(S(=O)(=O)N2CCN(C(=O)c3ccccc3)CC2)c1` [Compound 70, 3-(4-Benzoylpiperazin-1-ylsulfonyl)-4-(3,5-dichlorophenoxy)benzonitrile] was not above 0.05 µM. Regarding `CC(C)(C)CC(=O)N1CCN(S(=O)(=O)c2cc(C#N)ccc2Oc2cc(Cl)cc(Cl)c2)CC1` [Compound 71, 4-(3,5-Dichlorophenoxy)-3-(4-(3,3-dimethylbutanoyl)piperazin-1-ylsulfonyl)benzonitrile], the Ki was more than 5 µM. Molecule `CC(C)CC(=O)N1CCN(S(=O)(=O)c2cc(C#N)ccc2Oc2cc(Cl)cc(Cl)c2)CC1` [Compound 72, 4-(3,5-Dichlorophenoxy)-3-(4-(3-methylbutanoyl)piperazin-1-ylsulfonyl)benzonitrile] displayed an inhibition constant (Ki) of 0.5 to 5 µM.

The molecule `N#Cc1ccc(Oc2cc(Cl)cc(Cl)c2)c(S(=O)(=O)N2CCN(C(=O)C3CCC3)CC2)c1` [Compound 73, 3-(4-(Cyclobutanecarbonyl)piperazin-1-ylsulfonyl)-4-(3,5-dichlorophenoxy)benzonitrile] gave an inhibition constant Ki of more than 5 µM.

In turn, `N#Cc1ccc(Oc2cc(Cl)cc(Cl)c2)c(S(=O)(=O)N2CCN(C(=O)C3CCCC3)CC2)c1` [Compound 74, 3-(4-(Cyclopentanecarbonyl)piperazin-1-ylsulfonyl)-4-(3,5-dichlorophenoxy)benzonitrile] had an inhibition constant Ki of more than 5 µM. Take `N#Cc1ccc(Oc2cc(Cl)cc(Cl)c2)c(S(=O)(=O)N2CCN(C(=O)Nc3cccc(F)c3)CC2)c1` [Compound 75, 4-(5-Cyano-2-(3,5-dichlorophenoxy)phenylsulfonyl)-N-(3-fluorophenyl)piperazine-1-carboxamide]: the Ki was not above 0.05 µM. With `CS(=O)(=O)N1CCN(S(=O)(=O)c2cc(C#N)ccc2Oc2cc(Cl)cc(Cl)c2)CC1` [Compound 76, 4-(3,5-Dichlorophenoxy)-3-(4-(methylsulfonyl)piperazin-1-ylsulfonyl)benzonitrile], the inhibition constant Ki is not above 0.05 µM.
